The values below come from ChEMBL document CHEMBL1201862, “PubChem BioAssay data set” (2004).

Some test systems named below: PC-3; NCI/ADR-RES; HL-60; KM12; BT-549; Malme-3M; OVCAR-5; K562; ACHN; HCC 2998; SF-268; EKVX; LOX IMVI; SF-539; SNB-19; IGROV-1; TK-10; NCI-H522; CCRF-CEM.
Common to all, as to experiment: NCI anticancer screen, dose series, 48 h

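96-well plates; 48 h exposure; 5 concentrations. Endpoints by linear interpolation between flanking doses. Not reached: highest tested concentration assigned. Here, GI50 denotes the concentration required for 50% inhibition of growth.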 Active and inactive are the calls of the source. Cut-off read from the data, not from the text of the source: active = GI50 up to about 1.1 µM and inactive = higher.

Turning to `C#CCSc1nc(-c2ccco2)n[nH]1`, the GI50 in the assay on PC-3, in the assay on NCI/ADR-RES, in the assay with HL-60, in the assay on KM12, with BT-549 and with Malme-3M was > 100 µM (inactive) throughout. In addition, the GI50 in the assay on OVCAR-5, in the assay on K562, in the assay with ACHN, in the assay on HCC 2998, in the assay on SF-268 and in the assay on EKVX was > 100 µM (inactive) in each case. Also, the GI50 was > 100 µM (inactive) with LOX IMVI; > 100 µM (inactive) in the assay with SF-539; > 100 µM (inactive) with SNB-19; 48.5 µM (inactive) with IGROV-1; > 100 µM (inactive) with TK-10; > 100 µM (inactive) in the assay on NCI-H522.

For the compound `O=C(O)Cc1cc(Cl)ccc1O`, the GI50 with PC-3, in the assay with NCI/ADR-RES, in the assay on HL-60, in the assay with CCRF-CEM, in the assay on KM12 and in the assay on BT-549 was > 100 µM (inactive) each time. In addition, the GI50 in the assay with Malme-3M, in the assay with OVCAR-5, in the assay with ACHN, in the assay on HCC 2998, with SF-268 and in the assay on EKVX was > 100 µM (inactive) in each case. Moreover, the GI50 in the assay with LOX IMVI, with SF-539, in the assay on SNB-19, with IGROV-1, in the assay with TK-10 and with NCI-H522 was > 100 µM (inactive) in each case.

For the compound `Cc1cn(C2CC(N=[N+]=[N-])C(C(=O)O)O2)c(=O)[nH]c1=O` (stereo unspecified), the GI50 with PC-3, in the assay on NCI/ADR-RES, with HL-60, in the assay on CCRF-CEM, in the assay with KM12 and in the assay on BT-549 was > 100 µM (inactive) in each case. For the same compound, the GI50 in the assay with Malme-3M, in the assay with OVCAR-5, with K562, in the assay with ACHN, in the assay on HCC 2998 and with SF-268 was > 100 µM (inactive) throughout. The GI50 with EKVX, in the assay with SF-539, with SNB-19, with IGROV-1, with TK-10 and in the assay with NCI-H522 was > 100 µM (inactive) throughout.

Regarding `C#CCOCC12C=CC(O1)C1C(=O)OCC12` (stereo unspecified), the GI50 in the assay on PC-3, in the assay on NCI/ADR-RES, in the assay with HL-60, in the assay on CCRF-CEM, with KM12 and in the assay on BT-549 was > 100 µM (inactive) in each case. Moreover, the GI50 in the assay with Malme-3M, with OVCAR-5, in the assay on K562, in the assay on ACHN, in the assay with HCC 2998 and in the assay on SF-268 was > 100 µM (inactive) each time. Besides, the GI50 with EKVX, in the assay on LOX IMVI, in the assay on SF-539, with SNB-19, in the assay on IGROV-1 and in the assay on TK-10 was > 100 µM (inactive) each time. For the same compound, the GI50 with NCI-H522 is > 100 µM (inactive).

As to `O=C(O)CC(NC(=O)/C(=C/c1ccccc1)NC(=O)c1ccccc1)C(=O)O` (stereo unspecified), the GI50 in the assay on PC-3, in the assay on NCI/ADR-RES, with HL-60, with CCRF-CEM, in the assay with KM12 and with BT-549 was > 100 µM (inactive) in each case. For the same compound, the GI50 with Malme-3M, in the assay on OVCAR-5, with K562, in the assay with ACHN, in the assay with HCC 2998 and in the assay on SF-268 was > 100 µM (inactive) in each case. Besides, the GI50 in the assay with EKVX, with LOX IMVI, in the assay with SF-539, with SNB-19, in the assay with IGROV-1 and with TK-10 was > 100 µM (inactive) each time. For the same compound, the GI50 in the assay with NCI-H522 was > 100 µM (inactive).

Regarding `O=c1[nH]nc(-c2ccccc2)c2[nH]c3c(c12)CCCc1ccccc1-3`, the GI50 is 14.9 µM (inactive) in the assay with PC-3; 12.4 µM (inactive) with NCI/ADR-RES; 20.9 µM (inactive) in the assay with HL-60; 14 µM (inactive) in the assay on CCRF-CEM; 10.2 µM (inactive) in the assay on KM12; 20.7 µM (inactive) in the assay with BT-549. Also, the GI50 in the assay on Malme-3M is 11.8 µM (inactive); in the assay with OVCAR-5, 18.7 µM (inactive); in the assay on K562 it was 12.8 µM (inactive); in the assay with ACHN, 11.9 µM (inactive); with HCC 2998 it was 14.8 µM (inactive); in the assay on SF-268, 24.9 µM (inactive). Also, the GI50 is 10.6 µM (inactive) in the assay on EKVX; 16.5 µM (inactive) with LOX IMVI; 17.2 µM (inactive) with SF-539; 10.7 µM (inactive) with SNB-19; 12.5 µM (inactive) in the assay on IGROV-1; 19.4 µM (inactive) in the assay with TK-10. Further, in the assay on NCI-H522, the GI50 was 7.69 µM (inactive).

As to `S=C1N=C(Cl)/C(=C\c2ccccc2)N1`, the GI50 in the assay on PC-3 was > 100 µM (inactive); in the assay on NCI/ADR-RES, > 100 µM (inactive); in the assay with HL-60, > 100 µM (inactive); with CCRF-CEM, > 31.6 µM (inactive); in the assay with KM12, > 87.7 µM (inactive); in the assay on BT-549 it was > 100 µM (inactive). Besides, the GI50 is > 83.6 µM (inactive) in the assay with Malme-3M; > 100 µM (inactive) in the assay with OVCAR-5; > 100 µM (inactive) with K562; > 100 µM (inactive) in the assay with ACHN; 1.06 µM (active) with HCC 2998; > 100 µM (inactive) in the assay with SF-268. For the same compound, the GI50 in the assay with EKVX, in the assay on LOX IMVI, in the assay with SF-539, with SNB-19, in the assay with IGROV-1 and with TK-10 was > 100 µM (inactive) each time. The GI50 with NCI-H522 was > 100 µM (inactive).

In the case of `CC1C(C#N)(C#N)C(C#N)=C(N)C1(C)[N+](=O)[O-]` (stereo unspecified), the GI50 in the assay with PC-3 was 66.4 µM (inactive); in the assay with NCI/ADR-RES, > 100 µM (inactive); with HL-60 it was 29.8 µM (inactive); in the assay on CCRF-CEM it was 32.4 µM (inactive); with KM12, > 100 µM (inactive); in the assay on BT-549, 42.1 µM (inactive). The GI50 with Malme-3M was 48.2 µM (inactive); in the assay on OVCAR-5, > 100 µM (inactive); in the assay on K562, 29.9 µM (inactive); in the assay on ACHN, 87.5 µM (inactive); with HCC 2998, 47.6 µM (inactive); in the assay on SF-268, > 100 µM (inactive). The GI50 with EKVX is 21.5 µM (inactive); in the assay on LOX IMVI, 37.7 µM (inactive); in the assay on SF-539, 31.5 µM (inactive); with SNB-19, > 100 µM (inactive); in the assay on IGROV-1 it was 37.2 µM (inactive); in the assay on TK-10 it was > 100 µM (inactive). In addition, the GI50 in the assay on NCI-H522 is 36.7 µM (inactive).

Consider `COc1c(O)cc2c(c1O)C1O[C@H](CO)C(O)[C@H](O)[C@H]1OC2=O` (stereo partly specified), for which the GI50 in the assay on PC-3, with NCI/ADR-RES, in the assay on HL-60, in the assay on CCRF-CEM, with KM12 and in the assay with BT-549 was > 100 µM (inactive) each time. In addition, the GI50 in the assay on Malme-3M, with OVCAR-5, with K562, in the assay on ACHN, with HCC 2998 and in the assay on SF-268 was > 100 µM (inactive) throughout. Moreover, the GI50 with LOX IMVI, in the assay with SF-539, in the assay with SNB-19, with IGROV-1, with TK-10 and in the assay with NCI-H522 was > 100 µM (inactive) in each case.

As for `CC(=O)O[C@H]1C(=O)[C@@]2(C)[C@H]([C@H](OC(=O)c3ccccc3)[C@]3(O)C[C@H](OC(=O)[C@H](O)[C@@H](NC(=O)OC(C)(C)C)c4ccco4)C(C)=C1C3(C)C)[C@]1(OC(C)=O)CO[C@@H]1C[C@@H]2O`, the GI50 in the assay with PC-3 was < 0.005 µM (active); in the assay with NCI/ADR-RES it was 0.0185 µM (active); in the assay with HL-60, < 0.005 µM (active); with CCRF-CEM it was < 0.005 µM (active); in the assay on KM12, < 0.005 µM (active); in the assay with BT-549, < 0.005 µM (active). Moreover, the GI50 is 6.61 µM (inactive) in the assay with Malme-3M; 0.00724 µM (active) with OVCAR-5; < 0.005 µM (active) with K562; 8.2 µM (inactive) in the assay with ACHN; < 0.005 µM (active) in the assay with HCC 2998; < 0.005 µM (active) in the assay with SF-268. The GI50 in the assay with EKVX was 14.7 µM (inactive); in the assay on LOX IMVI, 0.00546 µM (active); with SF-539, 0.00553 µM (active); with SNB-19, 0.00971 µM (active); in the assay on IGROV-1, 0.00682 µM (active); with TK-10, 0.0116 µM (active). Also, the GI50 in the assay on NCI-H522 was < 0.005 µM (active).
